Source: patent US20110039946A1, “METHOD OF IMPROVING ATOPIC DERMATOLOGICAL DISEASES, IN WHICH A COMPOSITION COMPRISING MAGNOLOL, HONOKIOL OR A COMBINATION THEREOF IS ADMINISTERED TO A PATIENT WITH ATOPIC DERMATOLOGICAL DISEASES” (BIOSPECTRUM, INC., priority 2007, published 2011)
Where two headings read alike, the source gives them in different places.

What was measured:
Staphylococcus aureus [1] = assay: filter-paper disk agar diffusion (Kirby-Bauer) antibacterial activity; assay type: cell-based; details: S. aureus; for Diameter of clear zone: filter disk 10 mm
Procedure: The standardized filter-paper disk agar diffusion method was used to determine the antibacterial activity of magnolol and honokiol against Staphylococcus aureus. This method was also well-known as Kirby-Bauer method, and has been widely used to determine the antibacterial activity (see, European Journal of Pharmacology, Junho Park et al, 2004, 496(1-3), 189-195). Briefly, Staphylococcus aureus cells were incubated with brain heart infusion (BHI) broth at 37° C. under anaerobic conditions until they reach the stationary phase. Approximately 1×10^6 bacteria cells were mixed with 7 ml of BHI agar medium containing 0.8% phytoagar and then, poured on the agar plate containing 1.5% phytoagar. The filter-paper discs (10 mm diameter) were treated with magnolol and honokiol at respective test concentrations, and then placed on the BHI agar plate inoculated with the test bacteria. The plate was incubated at 37° C. for 24 hours under anaerobic conditions, and then the antibacterial activity was determined by measuring the size of clear zone (growth inhibition halo) around the disk. The size of clear zone has the functional relation with the logarithmic value of magnolol or honokiol concentration, from which the standard calibration curve could be derived (FIG. 1). The unknown concentration of the test sample can be determined from this standard calibration curve. […] The antibacterial activity was remarkable at 6.25 μg/disk (0.39 mM) for honokiol and 12.5 μg/disk (0.78 mM) for magnolol (Table 1).

interleukin-8 = interleukin-8 production induced by heat-inactivated Staphylococcus aureus in THP-1 cells (ELISA); assay type: cell-based, human; details: heat-inactivated S. aureus 100 μg/ml, 48 hours
Procedure: In general, the inflammatory response generated by bacteria or bacterial components is mediated by proinflammatory cytokines. To determine whether magnolol or honokiol can inhibit the inflammatory response generated by Staphylococcus aureus ELISA for interleukin-8 and TNF-alpha was conducted. For this purpose, THP-1 cell line as human monocyte cell line was used. 1×10^6 THP-1 cells were incubated for 14 hours under serum-free conditions, and then treated with heat-inactivated Staphylococcus aureus 100 μg/ml alone or simultaneously with magnolol and honokiol, respectively, which was then incubated for 48 hours. The amounts of interleukin-8 and TNF-alpha secreted into cell culture medium were measured by means of ELISA kit (Genzyme, Minneapolis, Minn.).

[2] = tested on: patients suffering from mild or moderate atopic dermatitis; assay: clinical evaluation of skin topical preparations in atopic dermatitis (EASI, pruritus); assay type: in vivo, human; details: applied as 1% cream; 2 and 4 weeks
Procedure: The cosmetic compositions for atopy containing magnolol, honokiol and pimecrolimus, respectively were prepared with the contents of components as listed in the following Table 3, according to the conventional method. In the following Table 3, the control group is for the skin topical preparation with no antibacterial and anti-inflammatory substance, and the test groups 1, 2 and 3 are for the cosmetic compositions for skin topical use to treat atopy containing magnolol, honokiol and pimecrolimus, respectively.
To prepare the skin topical preparation purified water, glycerin and butylene glycol were mixed and dissolved at 70° C. (aqueous part), and the remaining components except for the three components and trimethanolamine were dissolved at 70° C. (oil part). The oil part was added to the aqueous part and stirred with a homomixer (from Tokushu Kika Kogyo, Co., Ltd. In Japan) to induce the first emulsification to which trimethanolamine was finally added. […]
1) The symptoms and extent of atopic dermatitis were objectively determined using EASI (Eczema Area Severity Index) as follows, before treatment and 2 and 4 weeks after treatment. […]
EASI score and pruritus score were compared and evaluated by applying Kruskall-Wallis one-way ANOVA method as the basic statistical method before treatment and 2 and 4 weeks after treatment. […]

Staphylococcus aureus [3] = assay: Minimum Inhibitory Concentration, two-fold serial dilution; assay type: cell-based; details: 24 h, read-out: MIC of agents
Procedure: The test was conducted to determine the Minimum Inhibitory Concentrations (MIC) of magnolol and honokiol. Staphylococcus aureus incubated for 24 hours was introduced into 3 ml of brain heart infusion broth, and at the same time, magnolol and honokiol were respectively added thereto, and then incubated for 24 hours at 37° C. under anaerobic conditions. To determine MICs of honokiol and magnolol the two-fold serial dilution method was used. As used herein, MIC is defined as the minimum concentration at which the growth of microorganism is inhibited. As presented in Table 2, it could be confirmed that MICs of magnolol and honokiol for Staphylococcus aureus were 6 μg/ml and 2 μg/ml, respectively. That is, it can be seen that the antibacterial activity of honokiol is higher than that of magnolol.

Staphylococcus aureus [4] = assay: Minimum Bacteriocidal Concentration / kinetics of bacterial killing; assay type: cell-based
Procedure: The inhibition of bacterial growth with a certain substance is the result obtained by inhibiting the proliferation of respective cells or killing the cells. […] The following experiment was conducted to determine the Minimum Bacteriocidal Concentration (MBC). First, the same procedures as the determination of MIC were conducted in the liquid culture medium, and then a portion of the culture medium in the test tube in which no proliferation was shown was taken, diluted to remove magnolol and honokiol therefrom, and then incubated on the solid culture medium and observed for the colony formation after 24 hours. At this time, MBC means the minimum value of magnolol or honokiol concentration in the original culture solution in the plate medium on which no colony was produced. To determine MBC of magnolol and honokiol Staphylococcus aureus was used, and magnolol or honokiol was applied at the concentration one, five and 10 times as high as MIC concentration thereof to determine the kinetics of bacterial killing. The survival rate of microbes was determined within 2 hours.

TNF-alpha = TNF-alpha production induced by heat-inactivated Staphylococcus aureus in THP-1 cells (ELISA); assay type: cell-based, human; details: heat-inactivated S. aureus 100 μg/ml, 48 hours
Procedure: In addition, the experiment was conducted to identify the synergistic anti-inflammatory effect when magnolol and honokiol are combined in a certain ratio. The efficacy to inhibit the production of TNF-alpha was examined in cases where the combined ratio of magnolol and honokiol is 1 (7.5 μM):1 (7.5 μM), 1 (5 μM):2 (10 μM), and 2(10 μM):1 (5 μM) or in case of treating with 15 μM of magnolol alone or 15 μM of honokiol alone.

Structure (SMILES): CC[C@H]1OC(=O)[C@H](C)[C@@H](O[C@H]2C[C@@](C)(OC)[C@@H](O)[C@H](C)O2)[C@H](C)[C@@H](O[C@@H]2O[C@H](C)C[C@H](N(C)C)[C@H]2O)[C@](C)(O)C[C@@H](C)C(=O)[C@H](C)[C@@H](O)[C@]1(C)O [Erythromycin, reference compound]
- Diameter of clear zone (Staphylococcus aureus [1]; 6.25 mg/disk (footnote a)): 35 ± 2.2^c mm
- Diameter of clear zone (Staphylococcus aureus [1]; 12.5 mg/disk (footnote a)): 42 ± 3.8^c mm
- Diameter of clear zone (Staphylococcus aureus [1]; 25 mg/disk (footnote a)): 45 ± 2.5^c mm
- Diameter of clear zone (Staphylococcus aureus [1]; 50 mg/disk (footnote a)): 48 ± 5^c mm

Structure (SMILES): C=CCc1ccc(O)c(-c2cc(CC=C)ccc2O)c1 [Magnolol, 5,5′-di-2-propenyl-1,1′-biphenyl-2,2′-diol]
- production of interleukin-8 induced by Staphylococcus aureus (interleukin-8): reduced
- pruritus accompanied by atopic dermatitis (visual analog scale) [2]: significantly improved
- MIC (Staphylococcus aureus [3]): 6 µg/mL
- amount at which the antibacterial activity was remarkable (Staphylococcus aureus [1]; disk diffusion): 12.5 μg/disk
- concentration at which the antibacterial activity was remarkable (Staphylococcus aureus [1]; disk diffusion, printed in brackets after μg/disk): 0.78 mM
- Diameter of clear zone (Staphylococcus aureus [1]; 12.5 mg/disk (footnote a)): 11 ± 0.4^c mm
- Diameter of clear zone (Staphylococcus aureus [1]; 25 mg/disk (footnote a)): 15 ± 0.2^c mm
- Diameter of clear zone (Staphylococcus aureus [1]; 50 mg/disk (footnote a)): 18 ± 0.2^c mm
- concentration at which Staphylococcus aureus was completely exterminated within 10 minutes (Staphylococcus aureus [4]): 45 µg/mL
- concentration at which Staphylococcus aureus was completely exterminated within 10 minutes (Staphylococcus aureus [4]; printed in brackets after μg/ml): 169.2 µM
- production of TNF-alpha induced by Staphylococcus aureus (TNF-alpha): reduced
